Patent US20040152710A1, “Use of norepinephrine reuptake modulators for preventing and treating vasomotor symptoms” (priority 2002, published 2004)
Read-outs that look alike come from different tables or passages of the source.

Columns and labels:
[1] = system: naloxone-induced flush in morphine-dependent ovariectomized rats; experiment: Morphine-dependent rat model of hot flush (naloxone-induced flush, MD model); settings: for changes in TST over time, effect on naloxone-induced flush: various doses; for ED50 value, abatement of naloxone-induced flush / effect on naloxone-induced flush at maximal flush / effect on naloxone-induced flush at maximal flush (dose response): 1 hour prior to naloxone; for ED50 value, abatement of naloxone-induced flush: maximal flush 15 minutes post-naloxone; for effect on naloxone-induced flush at maximal flush: 30 mg/kg intraperitoneally; for effect on naloxone-induced flush at maximal flush (dose response): 15 minutes post-naloxone; for ED50: Rattus norvegicus, read-out: ED50 value, abatement of naloxone-induced flush
Procedure: (§3) Dosing: All doses were prepared based on mg/kg.
(§4) Animals: Ovariectomized Sprague-Dawley rats (180-220 g) were obtained from a commercial vendor (Taconic, Germantown, N.Y.) and individually housed under 12 hours light/dark cycle in a room maintained at 25° C. Animals were provided with standard rat chow and water ad libitum.
Morphine-dependent model: Ovariectomized rats were injected once daily for 8-9 days with vehicle to minimize stress responses and then administered compound(s) on test day. On day 4 of dosing, morphine dependence was induced by sc implantation of two slow-release morphine pellets (75 mg/pellet) in the dorsal scapular region. […] Four to six days after implantation, morphine withdrawal was induced with an opioid antagonist (naloxone) that causes a transient increase in TST. […] Rats were mildly sedated with ketamine and a thermistor connected to a MacLab data acquisition system was taped to the base of the tail. Tail skin temperature was then monitored continuously for 35 minutes to establish a baseline temperature. Naloxone was subsequently administered and TST was measured for an additional 35 to 60 minutes (total recording time 70 to 95 minutes).
Statistical analysis: To analyze changes in TST induced by naloxone in morphine-dependent rats, all data were analyzed using a two factor repeated measure ANOVA for “treatment” and “time.” The model was fit to test whether there were significant differences in the responses between treatment groups. Naloxone administration is designated as time zero and data is then analyzed at 5 minute intervals. The first three readings were averaged and used as baseline TST scores. All data were analyzed as ΔTST (TST for each time point-baseline). Multiple comparisons (LSD p-values) among the treatment groups at each time point were used for the analysis. Efficacy of hot flush abatement was determined by evaluating statistical differences at the peak response time of 15 minutes post-nalbxone, when the maximal change in TST is observed. A customized SAS-excel (SAS Institute, Cary, N.C.) application was used applying a four parameter logistic model to determine ED50 values. A logistic dose transformation was performed on ΔTST. Maximum flush (ΔTST at 15 minutes post-naloxone) was used in the analysis and the minimum was locked at zero. […] Statisticians in the Biometrics Department (Wyeth Research, Collegeville, Pa.) developed a customized JMP application.

[2] = biological target: T1, human hNET (Homo sapiens, UniProt P23975); experiment: Norepinephrine (NE) uptake assay in MDCK-Net6 cells; assay type: cell-based; settings: for hNET % Specific NE uptake: at 1 μM
T1 construct: expressed in transfected cells
Procedure: (§1) Cells were plated at 300,000/T75 flask and cells were split twice weekly. […] Cells were plated at 250,000 cells/T75 flask and split twice weekly.
On day 1, cells were plated at 3,000 cells/well in growth medium and maintained in a cell incubator (37° C., 5% CO2). On day 2, growth medium was replaced with 200 μl of assay buffer (25 mM HEPES; 120 mM NaCl; 5 mM KCl; 2.5 mM CaCl2; 1.2 mM MgSO4; 2 mg/ml glucose (pH 7.4, 37° C.)) containing 0.2 mg/ml ascorbic acid and 10 μM pargyline. Plates containing cells with 200 μl of assay buffer were equilibrated for 10 minutes at 37° C. prior to addition of compounds. […] Data from these wells were used to define non-specific NE uptake (minimum NE uptake). Test compounds were prepared in DMSO (10 mM) and diluted in assay buffer according to test range (1 to 10,000 nM). Twenty-five microliters of assay buffer (maximum NE uptake) or test compound were added directly to triplicate wells containing cells in 200 μl of assay buffer. The cells in assay buffer with test compounds were incubated for 20 minutes at 37° C. […] The reaction was terminated by decanting the supernatant from the plate. The plates containing cells were washed twice with 200 μl assay buffer (37° C.) to remove free radioligand. The plates were then inverted, left to dry for 2 minutes, then reinverted and air dried for an additional 10 minutes. The cells were lysed in 25 μl of 0.25 N NaOH solution (4° C.), placed on a shake table and vigorously shaken for 5 minutes. After cell lysis, 75 μl of scintillation cocktail was added to each well and the plates were sealed with film tape. The plates were returned to the shake table and vigorously shaken for a minimum of 10 minutes to ensure adequate partitioning of organic and aqueous solutions. The plates were counted in a Wallac Microbeta counter (PerkinElmer) to collect the raw cpm data.
(§2) For each experiment, a data stream of cpm values collected from the Wallac Microbeta counter was downloaded to a Microsoft Excel statistical application program. Determination of percent specific NE uptake (% SB) at 1 μM are calculated using a Microsoft Excel spread sheet applying the following formula: [% SB of NE reuptake (% SB)=[(1−(mean cpm control wells−each cpm drug well)/(mean cpm control wells−mean cpm non-specific wells))×100]. Calculations of EC50 values were made using the transformed-both-sides logistic dose response program written by Wyeth Biometrics Department.

[3] = biological target: T2, hSERT (Homo sapiens, UniProt P31645); experiment: Serotonin (5-HT) uptake assay in JAR cells; assay type: cell-based; settings: for hSERT % specific 5-HT uptake: at 1 μM
T2 construct: cells were stimulated with staurosporine (40 nM) to increase the expression of the 5-HT transporter; host or cells: JAR (human placental choriocarcinoma)
Procedure: as §1
The methods for 5-HT functional reuptake using the JAR cell line were modified using a previous literature report. […] On day 2, cells were stimulated with staurosporine (40 nM) to increase the expression of the 5-HT transporter. On day 3, cells were removed from the cell incubator two hours prior to assay and maintained at room temperature to equilibrate the growth medium to ambient oxygen concentration. Subsequently, the growth medium was replaced with 200 μl of assay buffer (25 mM HEPES; 120 mM NaCl; 5 mM KCl; 2.5 mM CaCl2; 1.2 mM MgSO4; 2 mg/ml glucose (pH 7.4, 37° C.)) containing 0.2 mg/ml ascorbic acid and 10 μM pargyline. […] Data from these wells were used to define non-specific 5-HT uptake (minimum 5-HT uptake). Test compounds were prepared in DMSO (10 mM) and diluted in assay buffer according to test range (1 to 1,000 nM). Twenty-five microliters of assay buffer (maximum 5-HT uptake) or test compound were added directly to triplicate wells containing cells in 200 μl of assay buffer. The cells were incubated with the compound for 10 minutes (37° C.). […] The cells were incubated with the reaction mixture for 5 minutes at 37° C. The 5-HT uptake reaction was terminated by decanting the assay buffer. The cells were washed twice with 200 μl assay buffer (37° C.) to remove free radioligand. The plates were inverted and left to dry for 2 minutes, then reinverted and air-dried for an additional 10 minutes. Subsequently, the cells were lysed in 25 μl of 0.25 N NaOH (4° C.) then placed on a shaker table and shaken vigorously for 5 minutes. After cell lysis, 75 μl of scintillation cocktail was added to the wells, the plates were sealed with film tape and replaced on the shake table for a minimum of 10 minutes. The plates were counted in a Wallac Microbeta counter (PerkinElmer) to collect the raw cpm data.
as §2

[4] = system: tail skin temperature of ovariectomized rats; experiment: OVX-induced thermoregulatory dysfunction telemetry model
Procedure: as §3, §4
A temperature and physical activity transmitter (PhysioTel TA10TA-F40, Data Sciences International) was implanted subcutaneously in the dorsal scapular region and the tip of the temperature probe was tunneled subcutaneously 2.5 cm beyond the base of the tail. After a 7-day recovery period, TST readings were continuously recorded for the remainder of the study. Tail skin temperature readings were collected from each animal every 5 minutes with values obtained over a 10 second sampling period. The day before test day, an average baseline TST value was calculated for each animal by averaging temperature readings recorded during the 12 hours active (dark) phase. In these studies, animals were dosed approximately 1 hour prior to the onset of dark cycle.
Evaluation of a compound's ability to restore normal lowering of TST in the telemetry model was analyzed using hourly TST values calculated for each animal by averaging the 12 temperature readings obtained every 5 minutes over that recording time. To analyze ΔTST in the telemetry model, a two factors repeated measure ANOVA was performed. The model used for analysis was ΔTST=GRP (group)+HR (hours)+GRP*HR+BASELINE. Thus, the reported least squares means are the expected mean values as if both groups had the same baseline value. Post-hoc tests of hourly GRP*HR samples are t-tests of the difference between groups for each hour. To be conservative, a result was not considered significant unless the p-value was <0.025. All analyses were performed using SAS PROC MIXED (SAS, Carey, N.C.).

[5] = [3H]5-HT uptake, JAR cells, read-out: hSERT EC50

T1 sequence (P23975 whole entry): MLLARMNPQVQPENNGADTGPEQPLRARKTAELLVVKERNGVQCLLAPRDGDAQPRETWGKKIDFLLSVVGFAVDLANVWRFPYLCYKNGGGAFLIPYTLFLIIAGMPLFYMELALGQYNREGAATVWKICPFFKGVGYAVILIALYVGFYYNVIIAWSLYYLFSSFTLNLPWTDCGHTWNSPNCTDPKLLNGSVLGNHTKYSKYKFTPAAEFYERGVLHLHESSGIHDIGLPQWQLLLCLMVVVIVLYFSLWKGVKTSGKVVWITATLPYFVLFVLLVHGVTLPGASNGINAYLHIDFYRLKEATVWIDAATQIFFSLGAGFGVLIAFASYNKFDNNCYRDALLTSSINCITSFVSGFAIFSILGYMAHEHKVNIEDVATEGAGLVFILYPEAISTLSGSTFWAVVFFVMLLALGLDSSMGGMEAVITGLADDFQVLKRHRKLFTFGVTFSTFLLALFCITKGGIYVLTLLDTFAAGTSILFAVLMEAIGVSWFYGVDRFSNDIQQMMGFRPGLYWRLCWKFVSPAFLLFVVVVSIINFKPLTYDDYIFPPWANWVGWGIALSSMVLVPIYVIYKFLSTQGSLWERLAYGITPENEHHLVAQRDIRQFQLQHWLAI
T2 sequence (P31645 whole entry): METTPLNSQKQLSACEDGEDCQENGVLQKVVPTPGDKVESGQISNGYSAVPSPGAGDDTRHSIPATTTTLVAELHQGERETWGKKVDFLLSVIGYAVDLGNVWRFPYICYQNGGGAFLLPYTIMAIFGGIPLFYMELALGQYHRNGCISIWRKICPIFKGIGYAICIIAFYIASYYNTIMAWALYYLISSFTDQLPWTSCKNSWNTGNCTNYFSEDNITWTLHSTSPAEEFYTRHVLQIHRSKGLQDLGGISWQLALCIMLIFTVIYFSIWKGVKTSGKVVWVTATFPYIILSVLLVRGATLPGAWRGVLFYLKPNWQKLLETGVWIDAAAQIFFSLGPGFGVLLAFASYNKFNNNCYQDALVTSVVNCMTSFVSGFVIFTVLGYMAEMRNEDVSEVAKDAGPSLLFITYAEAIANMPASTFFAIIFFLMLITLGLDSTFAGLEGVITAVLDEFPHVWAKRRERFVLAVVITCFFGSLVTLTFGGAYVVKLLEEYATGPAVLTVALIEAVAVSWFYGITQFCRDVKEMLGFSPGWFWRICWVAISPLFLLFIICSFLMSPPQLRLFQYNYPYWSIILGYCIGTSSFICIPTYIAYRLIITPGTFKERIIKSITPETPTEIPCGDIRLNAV

With `CN1CCN(CC(c2cccc(Cl)c2)C2(O)CCCCC2)CC1` (racemic) [1-[1-(3-chlorophenyl)-2-(4-methyl-1-piperazinyl)ethyl]cyclohexanol] the “changes in TST over time, effect on naloxone-induced flush” value ([1]; sc) was “dose-dependently abate the naloxone-induced flush”, the EC50 [2] was 55 nM and the EC50 [3, 5] was 15500 nM.

`CN(C)C[C@@H](c1ccc(O)cc1)C1(O)CCCCC1` (single isomer, unassigned) [R-ODV, R-enantiomer of O-desmethylvenlafaxine] was tested, and the “ED50 value, abatement of naloxone-induced flush” value (shortened to “ED50 value, abatement”) ([1]; sc) was 14.4+13 mg/kg.

With `COc1ccc([C@H](CN(C)C)C2(O)CCCCC2)cc1` (single isomer, unassigned) [R-venlafaxine, R-enantiomer of venlafaxine] the “ED50 value, abatement” value ([1]; sc) was 8.3+3 mg/kg.

With `CN(C)C[C@H](c1ccc(O)cc1)C1(O)CCCCC1` (single isomer, unassigned) [S-ODV, S-enantiomer of ODV] the “ED50 value, abatement” value ([1]; sc) was 13.3+8 mg/kg.

`COc1ccc([C@@H](CN(C)C)C2(O)CCCCC2)cc1` (single isomer, unassigned) [S-venlafaxine, S-enantiomer of venlafaxine] was tested, and the “ED50 value, abatement” value ([1]; sc) was 10.9+3 mg/kg.

For `OC1(C(CN2CCN(c3cccc(Cl)c3)CC2)c2cccc(Cl)c2)CCCCC1` (stereo not drawn) [1-[1-(3-chlorophenyl)-2-[4-(3-chlorophenyl)-1-piperazinyl]ethyl]cyclohexanol], the “hNET % Specific NE uptake” value [2] was 23% and the “hSERT % specific 5-HT uptake” value [3] was 72%.

For `CN1CCN(CC(c2cccc(F)c2)C2(O)CCCCC2)CC1` (stereo not drawn) [1-[1-(3-fluorophenyl)-2-(4-methyl-1-piperazinyl)ethyl]cyclohexanol], the EC50 [2] was 240 nM and the “hSERT EC50” value ([3]; [3H]5-HT uptake, JAR cells) was “Inactive at 1 μm”.

In the case of `COc1cccc(C(CN2CCN(c3cccc(C(F)(F)F)c3)CC2)C2(O)CCCCC2)c1` (stereo not drawn) [1-[1-(3-methoxyphenyl)-2-[4-[3-(trifluoromethyl)-phenyl]-1-piperazinyl]ethyl]cyclohexanol], the “hNET % Specific NE uptake” value [2] is reported as 38% and the “hSERT % specific 5-HT uptake” value [3] is reported as 87%.

`COc1cccc(C(CN2CCN(c3cccc(C(F)(F)F)c3)CC2)C2(O)CCCC2)c1` (stereo not drawn) [1-[1-(3-methoxyphenyl)-2-[4-[3-(trifluoromethyl)-phenyl]-1-piperazinyl]ethyl]cyclopentanol] was tested, and the “hNET % Specific NE uptake” value [2] was 57% and the “hSERT % specific 5-HT uptake” value [3] was 82%.

For `COc1cccc(C(CN2CCN(Cc3ccccc3)CC2)C2(O)CCCCC2)c1` (stereo not drawn) [1-[1-(3-methoxyphenyl)-2-[4-phenylmethyl)-1-piperazinyl]ethyl]cyclohexanol], the “hNET % Specific NE uptake” value [2] was 43% and the “hSERT % specific 5-HT uptake” value [3] was 49%.

For `OC1(C(CN2CCN(Cc3ccccc3)CC2)c2ccc(F)cc2)CCCCC1` (stereo not drawn) [1-[1-(4-fluorophenyl)-2-[4-(phenylmethyl)-1-piperazinyl]ethyl]cyclohexanol], the “hNET % Specific NE uptake” value [2] was 53% and the “hSERT % specific 5-HT uptake” value [3] was 88%.

In the case of `COc1ccc(C(CN2CCN(C)CC2)C2(O)CCCCC2)cc1` (stereo not drawn) [1-[1-(4-methoxyphenyl)-2-[4-methyl-1-piperazinyl)ethyl]cyclohexanol], the “hNET % Specific NE uptake” value [2] is reported as 65% and the “hSERT % specific 5-HT uptake” value [3] is reported as 79%.

With `COc1cccc(C(CN2CCN(c3cccc(Cl)c3)CC2)C2(O)CCCCC2)c1` (stereo not drawn) [1-[2-(3-chlorophenyl)1-piperazinyl]-1-[3-methoxyphenyl)ethyl]cyclohexanol] the “hNET % Specific NE uptake” value [2] was 64% and the “hSERT % specific 5-HT uptake” value [3] was 67%.

`CN1CCN(CC(c2cccc(C(F)(F)F)c2)C2(O)CCCCC2)CC1` (stereo not drawn) [1-[2-(4-methyl-1-piperazinyl)-1-[3-(trifluoromethyl)-phenyl]ethyl]cyclohexanol] gave an EC50 [2] of 87 nM and an EC50 [3, 5] of 33600 nM.

For `COc1cccc(C(CN2CCN(c3cncc(Cl)n3)CC2)C2(O)CCCCC2)c1` (stereo not drawn) [1-[2-[4-(6-chloro-2-pyrazinyl)-1-piperazinyl]-1-[3-methoxyphenyl)ethyl]cyclohexanol], the “hNET % Specific NE uptake” value [2] was 59% and the “hSERT % specific 5-HT uptake” value [3] was 58%.

For `OC1(C(CN2CCN(Cc3ccccc3)CC2)c2cccc(C(F)(F)F)c2)CCCCC1` (stereo not drawn) [1-[2-[4-(phenylmethyl)]-1-piperazinyl]-1-[3-(trifluoromethyl)phenyl]ethyl]cyclohexanol], the “hNET % Specific NE uptake” value [2] was 19% and the “hSERT % specific 5-HT uptake” value [3] was 94%.

In the case of `CN(C)CC(c1ccc(O)cc1)C1(O)CCCCC1` (stereo not drawn) [DVS-233, O-desmethyl-venlafaxine], the “changes in TST over time” value ([4]; 60 mg/kg sc) is reported as “significantly and transiently decreases TST during the active phase”.

With `CN(C)CC(c1cccc(Cl)c1)C1(O)CCCCC1` (stereo not drawn) [WY-781] the “effect on naloxone-induced flush at maximal flush” value [1] was “abated the naloxone-induced flush”.

For `CN(C)CC(c1cccc(C(F)(F)F)c1)C1(O)CCCCC1` (stereo not drawn) [WY-867], the “effect on naloxone-induced flush at maximal flush” value [1] was “abated the naloxone-induced flush”.

With `CCC1(c2cnc[nH]2)Cc2ccccc2C1` [atipamezole] the “changes in TST after naloxone, alone” value ([1]; 0.3 mg/kg sc, 55 minutes prior to naloxone) was “not significantly different from vehicle treated rats”.

For `CNCCCN1c2ccccc2CCc2ccccc21` [desipramine], the “changes in TST over time” value ([4]; 10 mg/kg sc) was “significantly decreases TST over the entire length of the active phase”, the “abatement of naloxone-induced flush, alone” value ([1]; 1 mg/kg sc, 40 minutes prior to naloxone) was “approximately 50%” and the hot flush abatement ([1]; 3 mg/kg desipramine co-administered with 10 mg/kg SRI) was 100%. For the same compound, the “abatement of naloxone-induced hot flush” value ([1]; 10 mg/kg sc) was 90.4%, the “abatement of naloxone-induced hot flush” value ([1]; 30 mg/kg sc) was 96.7% and the “ED50 value of desipramine in the presence of fluoxetine” value ([1]; co-administered fluoxetine 10 mg/kg sc) was “did not change”. The “abatement of naloxone-induced flush in combination with atipamezole” value ([1]; desipramine 1 mg/kg with atipamezole 0.3 mg/kg, sc) was “additive effect”, the “abatement of naloxone-induced hot flush when SRI co-administered” value ([1]; desipramine 10 mg/kg with fluoxetine 10 mg/kg) was “significantly enhanced abatement of naloxone-induced hot flush” and the “reduction of TST compared to vehicle treated rats” value ([1]; low dose, naloxone-induced hot flush) was 50%. For the same compound, the “effect on naloxone-induced flush at maximal flush (dose response)” value ([1]; sc) was “dose-dependently abates the naloxone-induced flush”.

`CNCCC(Oc1ccc(C(F)(F)F)cc1)c1ccccc1` (stereo not drawn) [fluoxetine] was tested, and the “effect on naloxone-induced flush, alone” value ([1]; fluoxetine 10 mg/kg sc) was “did not abate the naloxone-induced flush”.

Work on `CNCCC(Oc1ccccc1OC)c1ccccc1` (stereo not drawn) [nisoxetine, reference compound] yielded an EC50 [3] of 275 nM.

With `Fc1ccc([C@@H]2CCNC[C@H]2COc2ccc3c(c2)OCO3)cc1` [paroxetine] the ED50 ([1]; sc) was 22.3 mg/kg.

In the case of `CCOc1ccccc1OC(c1ccccc1)C1CNCCO1` (stereo not drawn) [reboxetine], the “effect on naloxone-induced flush at maximal flush (dose response)” value ([1]; sc) is reported as “dose-dependently abates the naloxone-induced flush” and the “changes in TST over time, effect on naloxone-induced flush” value ([1]; sc) is reported as “dose-dependently abate the naloxone-induced flush”.

`COc1ccc(C(CN(C)C)C2(O)CCCCC2)cc1` (stereo not drawn) [venlafaxine] was tested, and the “changes in TST over time” value ([4]; 15 mg/kg sc) was “significantly and transiently decreased TST during the active phase”, the ED50 ([1]; sc) was 15 mg/kg and the “effect on elevated naloxone-dependent hot flush induced by atipamezole” value ([1]; adrenergic α2 receptor antagonist atipamezole given) was “able to alleviate”.
